Test results from patent US8026218B2, “Bifunctional analgesic compounds for opioid receptor agonists and neurokinin-1 receptor antagonists” (The University of Arizona, priority 2006, dated 2011).
Where “and” joins values, the source holds several entries; their conditions need not be identical. Equal values may be shown once. Entries after “also recorded” stand apart in the source; their conditions may differ. Read-outs that look alike come from different tables or passages of the source.

Assays:
[1] = target: T1, Substance P receptors (guinea pig NK1) (Cavia porcellus, UniProt P30547); experiment: Guinea pig isolated ileum (GPI) assay with substance P stimulation in presence of 1 μM naloxone
T1 construct: from tissue; host or cells: guinea pig (Hartley) ileum LMMP, 1 μM naloxone present
T1 sequence (P30547 whole entry): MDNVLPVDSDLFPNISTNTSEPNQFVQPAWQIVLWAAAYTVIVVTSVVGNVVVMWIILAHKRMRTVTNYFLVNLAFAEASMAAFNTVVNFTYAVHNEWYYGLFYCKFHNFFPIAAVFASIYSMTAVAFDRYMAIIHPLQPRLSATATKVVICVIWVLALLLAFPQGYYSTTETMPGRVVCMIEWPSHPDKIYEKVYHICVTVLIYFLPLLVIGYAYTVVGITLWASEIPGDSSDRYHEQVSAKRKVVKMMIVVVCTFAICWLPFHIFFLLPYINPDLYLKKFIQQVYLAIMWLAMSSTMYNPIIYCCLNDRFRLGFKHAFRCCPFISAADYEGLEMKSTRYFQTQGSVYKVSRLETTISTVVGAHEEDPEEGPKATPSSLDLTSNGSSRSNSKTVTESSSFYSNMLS

[2] = target: T2, human NK1 receptor (hNK1) (Homo sapiens, UniProt P25103); details: Cascieri 1994; cited from earlier work
T2 construct: expressed in transfected cells
T2 sequence (P25103 whole entry): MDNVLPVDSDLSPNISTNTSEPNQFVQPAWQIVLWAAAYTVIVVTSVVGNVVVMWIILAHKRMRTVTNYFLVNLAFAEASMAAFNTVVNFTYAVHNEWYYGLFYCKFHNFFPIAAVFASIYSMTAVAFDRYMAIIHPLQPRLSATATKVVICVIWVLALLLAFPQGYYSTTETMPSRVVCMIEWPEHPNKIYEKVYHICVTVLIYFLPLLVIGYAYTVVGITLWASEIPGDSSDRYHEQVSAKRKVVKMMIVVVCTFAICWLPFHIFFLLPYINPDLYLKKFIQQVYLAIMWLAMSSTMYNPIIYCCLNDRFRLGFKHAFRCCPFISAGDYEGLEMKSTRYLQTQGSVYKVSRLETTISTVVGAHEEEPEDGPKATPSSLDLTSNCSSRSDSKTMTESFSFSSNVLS

male Sprague Dawley rats [3] = experiment: Observation of toxicity throughout the in vivo studies; set-up: species or system rat
From the text: (§1) In vivo Biological Activity. […] Food and water was available ad libitum. […] I.th. […] Each training session lasted three minutes. […] Discussion.
These assays gave the inventors very encouraging results.

male Sprague Dawley rats [4] = experiment: Anti-nociception, infrared radiant heat paw withdrawal latency; type: in vivo, rat; details: i.th.
Description: (§2) To estimate the analgesic potency of the chimeric compounds, anti-nociceptive, anti-hyperalgecia and anti-allodynic efficacies is tested via intrathecal (i.th.) or systemic (s.c.) administration of the compounds in L5/L6 spinal nerve ligated (SNL) male Sprague Dawley rats. Anti-nociception and anti-hyperalgecia were determined by using the infrared thermal testing, wherein paw withdrawal latencies were measured in response to a mobile radiant heat (FIG. 7-14). Anti-allodynic effect was measured in von Frey filamental testing (FIG. 7-14). Both chronic and acute animal models were tested ([…]).
as §1

[5] = target: T2, human NK1 receptor (hNK1); experiment: Radioligand competition binding, [3H]-Substance P, hNK1; details: Ki rNK1 vs Ki hNK1
normal, uninjured rats [6] = experiment: Rotarod motor skill test; details: highest analgesic dose 30 μg
δ opioid receptors (MVD) = target: T3, δ opioid receptors (MVD) (Mus musculus, UniProt P32300); experiment: Mouse isolated vas deferens (MVD) assay, opioid agonist
T3 construct: from tissue; host or cells: mouse (ICR) isolated vas deferens
T3 sequence (P32300 whole entry): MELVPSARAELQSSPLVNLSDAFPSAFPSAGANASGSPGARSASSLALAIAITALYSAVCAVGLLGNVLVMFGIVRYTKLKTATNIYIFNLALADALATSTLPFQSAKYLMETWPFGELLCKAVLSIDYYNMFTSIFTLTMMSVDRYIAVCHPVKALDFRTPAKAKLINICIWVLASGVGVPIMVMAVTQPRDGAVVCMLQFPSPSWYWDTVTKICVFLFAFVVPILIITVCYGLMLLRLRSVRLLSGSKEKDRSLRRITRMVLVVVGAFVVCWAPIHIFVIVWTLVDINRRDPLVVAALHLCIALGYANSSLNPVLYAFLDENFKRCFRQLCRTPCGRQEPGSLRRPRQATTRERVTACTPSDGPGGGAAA

[7] = tested on: L5/L6 spinal nerve ligated (SNL) male Sprague Dawley rats; experiment: Anti-hyperalgesia, infrared radiant heat in L5/L6 SNL rats; type: in vivo, rat
Description: as §2, §1

[8] = Octanol/saline distribution (logD7.4); type: physicochemical; details: 0.05 N HEPES buffer in 0.1 N NaCl
μ opioid receptors (GPI) = experiment: Guinea pig isolated ileum (GPI) assay, opioid agonist;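 note: inhibition of electrically evoked contractions (0.1 Hz, 0.4 msec, supramaximal voltage) in organ baths at 37 °C, contraction height 3 min after each cumulative dose versus the 1 min before dosing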
[9] = target: T4, human δ opioid receptors (hDOR) (Homo sapiens, UniProt P41143); experiment: Radioligand competition binding, [3H]DPDPE, hDOR membranes; details: membranes from transfected HN9.10 cells
T4 construct: expressed in transfected cells; host or cells: HN9.10 neuroblastoma cell line, pCDNA3, neomycin-selected clones
T4 sequence (P41143 whole entry): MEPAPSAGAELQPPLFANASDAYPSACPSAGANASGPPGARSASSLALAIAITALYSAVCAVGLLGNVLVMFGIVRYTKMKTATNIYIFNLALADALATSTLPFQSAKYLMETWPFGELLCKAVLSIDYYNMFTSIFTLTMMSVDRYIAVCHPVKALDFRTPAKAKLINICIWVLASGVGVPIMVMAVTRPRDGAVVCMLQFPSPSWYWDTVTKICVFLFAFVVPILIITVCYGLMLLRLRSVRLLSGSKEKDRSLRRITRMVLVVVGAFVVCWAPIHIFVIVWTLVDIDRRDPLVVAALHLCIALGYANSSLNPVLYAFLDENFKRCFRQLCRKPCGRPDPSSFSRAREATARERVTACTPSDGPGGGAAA

[10] = Brain distribution, in situ perfusion model; type: in vivo; details: FIG. 20
[11] = target: T4, human δ opioid receptors (hDOR); experiment: [35S]GTP-γ-S binding assay, hDOR; type: biochemical
rat NK1 (rNK1) receptor = target: T5, rat NK1 (rNK1) receptor (Rattus norvegicus, UniProt P14600); experiment: Radioligand competition binding, [3H]substance P, rNK1/CHO membranes; details: for IC50: membranes from transfected CHO cells
T5 construct: expressed in transfected cells; host or cells: CHO (rNK-1/CHO cell line from Dr. James Krause)
T5 sequence (P14600 whole entry): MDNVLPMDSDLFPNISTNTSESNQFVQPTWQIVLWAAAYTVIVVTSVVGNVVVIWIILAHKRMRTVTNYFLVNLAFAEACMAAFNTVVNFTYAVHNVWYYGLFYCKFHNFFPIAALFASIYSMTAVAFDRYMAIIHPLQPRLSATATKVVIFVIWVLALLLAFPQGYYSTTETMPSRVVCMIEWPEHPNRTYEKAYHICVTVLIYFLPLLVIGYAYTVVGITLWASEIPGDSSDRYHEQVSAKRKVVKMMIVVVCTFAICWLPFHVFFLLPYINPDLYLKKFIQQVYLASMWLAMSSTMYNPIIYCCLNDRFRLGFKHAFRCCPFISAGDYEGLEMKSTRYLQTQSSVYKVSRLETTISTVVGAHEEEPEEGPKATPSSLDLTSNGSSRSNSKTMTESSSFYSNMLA

[12] = target: T6, rat μ opioid receptors (rMOR) (Rattus norvegicus, UniProt P33535); experiment: biochemical; type: biochemical
T6 construct: expressed in transfected cells; host or cells: HN9.10 neuroblastoma cell line, pCDNA3, neomycin-selected clones
T6 sequence (P33535 whole entry): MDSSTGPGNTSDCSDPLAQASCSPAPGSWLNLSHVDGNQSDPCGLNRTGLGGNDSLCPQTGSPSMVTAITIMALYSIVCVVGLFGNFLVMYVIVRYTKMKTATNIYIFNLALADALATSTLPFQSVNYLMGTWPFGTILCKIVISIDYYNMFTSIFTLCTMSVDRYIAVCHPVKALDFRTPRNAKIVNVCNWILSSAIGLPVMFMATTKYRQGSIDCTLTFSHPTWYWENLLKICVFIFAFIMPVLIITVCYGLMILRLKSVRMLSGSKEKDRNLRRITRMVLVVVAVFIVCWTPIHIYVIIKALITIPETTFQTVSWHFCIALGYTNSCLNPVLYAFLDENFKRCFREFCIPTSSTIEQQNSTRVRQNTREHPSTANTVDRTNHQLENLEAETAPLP

[13] = Solubility in HEPES buffer; type: physicochemical; details: pH 7.4; 0.05 N HEPES buffer in 0.1 N NaCl solution
Description: Solubility. HEPES buffer (0.05 M HEPES buffer in 0.1 M NaCl, pH 7.4, 500 μL) was added to 1 mg of compound. The sample was vortexed for 30 sec, sonicated for 5 min, shaken at r.t. for 2 h, and then allowed to be stayed overnight to equilibration. The sample was filtrated with an Acrodisc Syringe Filter (13 mm, 0.45 μm pore, PTFE membrane, Pall Life Sciences, East Hills, N.Y.).

[14] = tested on: L5/L6 spinal nerve ligated (SNL) male Sprague Dawley rats; experiment: Anti-allodynia, von Frey filament testing in L5/L6 SNL rats; type: in vivo, rat; details: for anti-allodynic effect against mechanical stimulation: SNL rats, words
Description: as §2, §1

normal, uninjured rats [15] = details: reported; cited from earlier work
[16] = chronic, i.th., SNL-operated animals

## CC(=O)N[C@@H](Cc1c[nH]c2ccccc12)C(=O)OCc1cc(C(F)(F)F)cc(C(F)(F)F)c1 [L-732,138, Ac-Trp-3,5-O-Bzl(CF3)2, reference compound]
[1]; Table 16, in the presence of 1 μM naloxone
  Substance P antagonist, GPI, Ke: 250 ± 87 nM
[1]; Table 22, in the presence of 1 μM naloxone
  Substance P antagonist, GPI, Ke: 250 ± 87 nM
[1]; in the presence of 1 μM naloxone
  Substance P antagonist, GPI, Ke: 247 nM
[1]; in the presence of 1 μM naloxone, 138
  Substance P antagonist, GPI, Ke: 247 ± 87 nM and 250 ± 87 nM
[2]
  less affinity for rNK1 than hNK1 receptor: 200 fold

## CSCC[C@H](NC(=O)[C@H](Cc1ccccc1)NC(=O)CNC(=O)[C@@H](C)NC(=O)[C@@H](N)Cc1ccc(O)cc1)C(=O)N1CCC[C@H]1C(=O)N[C@@H](CC(C)C)C(=O)N[C@@H](Cc1c[nH]c2ccccc12)C(=O)OCc1cc(C(F)(F)F)cc(C(F)(F)F)c1 [TY005, H-Tyr-D-Ala-Gly-Phe-Met-Pro-Leu-Trp-O-3,5-Bzl(CF3)2]
Male Sprague Dawley rats [3]
  sign of toxicity: without any sign of toxicity; also recorded: no sign of toxicity
Male Sprague Dawley rats [4]
  time after administration at which efficacy disappeared: 45 min
Male Sprague Dawley rats [4]; infrared radiant heat, words
  anti-nociceptive effect: very potent; also recorded: distinct anti-nociceptive effect
[5]
  species difference between affinities at rNK1 and hNK1: 3.4 fold
normal, uninjured rats [6]
  sensorimotor impairment in rotarod test: no sensorimotor impairment
δ opioid receptors (MVD)
  IC50: 22.3 nM
[1]; Substance P antagonist, GPI, Ke, in the presence of 1 μM naloxone
  Kb: 24.7 ± 8.8 nM
[1]; read-out: Substance P GPI agonist (A50), at 1 μM, contraction relative to initial muscle contraction with KCl
  activation at 1 µM: 0%
[7]; 30 μg i.th., SNL rats
  anti-hyperalgesic recovery: ~100%
[7]; [16]
  thermal hyperalgesia after chronic administration: attenuates thermal hyperalgesia
[7]; i.th., SNL rats, words
  anti-hyperalgesic efficacy: very potent; also recorded: Dose dependent anti-hyperalgesic efficacy
[8]
  logD7.4: >4.0
μ opioid receptors (GPI); Table 16, electrically stimulated isolated tissue, read-out: Opioid agonist GPI (μ), IC50
  IC50: 360 ± 130 nM
μ opioid receptors (GPI); Table 28, read-out: GPI/LMMP Opioid(m) Agonist (IC50; nM)
  IC50: 359 nM
μ opioid receptors (GPI); Table 30, read-out: GPI/LMMP Opioid(m) Agonist (IC50; nM)
  IC50: 359 nM
μ opioid receptors (GPI); Table 39, read-out: GPI/LMMP opioid(mu) agonist (IC50; nM)
  IC50: 359 nM
μ opioid receptors (GPI); electrically stimulated isolated tissue, read-out: GPI (μ), IC50
  IC50: 359 ± 127 nM
[9]
  LogIC50, hDOR, [3H]DPDPE: −8.22 ± 0.06
[10]
  blood brain barrier penetration: penetrate blood brain barrier
[11]; read-out: Emax, hDOR, [35S]GTP-γ-S binding
  Emax: 51%
[11]; read-out: GTP binding hDOR Emax
  Emax: 47.6%
[11]; read-out: GTP binding hDOR Emax (%)
  Emax: 47.6%
Rat NK1 (rNK1) receptor; Affinity rNK1 (Ki; nM), Table 29
  Ki: 0.2 nM
Rat NK1 (rNK1) receptor; IC50, rNK1, Substance P radioligand
  IC50: 6.4 nM
Rat NK1 (rNK1) receptor; LogIC50, rNK1, Substance P radioligand
  IC50: 6.03 nM
[12]; read-out: Emax, rMOR, [35S]GTP-γ-S binding
  Emax: 45%
[12]; read-out: GTP binding rMOR Emax
  Emax: 45.6%
[12]; read-out: GTP binding rMOR Emax (%)
  Emax: 45.6%
[13]
  solubility: < 0.2 µg/mL
[14]
  anti-allodynic effect against mechanical stimulation: very potent anti-allodynic effect
[14]; [16]
  mechanical allodynia after chronic administration: reverses mechanical allodynia

## CN1CC[C@]23c4c5ccc(O)c4O[C@H]2[C@@H](O)C=C[C@H]3[C@H]1C5 [morphine, reference compound]
normal, uninjured rats [15]
  rotarod performance: impaired performance
[14]
  anti-allodynic effect against mechanical stimulation: negligible anti-allodynic efficacy
